One assay deals with T1, HIV-Integrase (Human immunodeficiency virus type 1 group M subtype B, UniProt P12497).
T1 construct: Recombinant integrase (0.26 ng) was incubated with the beads
The assay is described as follows: HIV-Integrase binding assay (competition with [3H]-compound I, SPA). To be noted: competitive binding vs [3H]-compound I to purified integrase; Ki by Cheng and Prusoff; read-out: in vitro binding. As for the experimental part:
HIV-Integrase Inhibition Activity. To evaluate in-vitro activity against HIV-integrase, 5 pmole of biotin labeled substrate DNA was bound to 100 μg of Streptavidin coated PVT SPA beads (Amersham Pharmacia Biotech). Recombinant integrase (0.26 ng) was incubated with the beads for 90 min at 37° C. Unbound enzyme was removed by washing the complex followed by addition of inhibitors and 0.1 fmol of P33 labeled target DNA. The reaction was stopped by adding EDTA to a final concentration of 10 mM. Samples were counted in TopCountNXT (Packard) and the CPM was used as a measure of integration. The reaction condition was as described in A. Engelman and R. Craigie, J. Virol. 69, 5908-5911 (1995). The sequences of substrate and target DNA were described in Nucleic Acid Research 22,1121-1122 (1994).
HIV-Integrase binding assay. In this assay competitive binding experiments with test compounds and a radiolabeled integrase inhibitor (compound I) are performed against purified integrase. SPA bead/DNA/enzyme complexes were prepared as for the integrase inhibition assay except, to each well, 0.69 μl of integrase enzyme ([…]) was used per 2 μl of LTR DNA-attached scintillation proximity beads (stock 50 mg/ml). Binding reactions were carried out in 96-well white polystyrene assay plates (Corning, #3600). The following was added sequentially to each well: 20 μl of water or 20 μl of human serum (Cellgro Cat# 35-060-CL), 5 μl of serially diluted compound (in 50% DMSO/50% integrase SPA buffer), 5 μl of [^3H]-compound I (6,000 cpm/μl in SPA buffer) and 20 μl of bead/DNA/enzyme complex. The plates were shaken for 2 hours and then allowed to sit at room temperature without shaking overnight. The [^3H]-compound I binding was measured using a Topcount scintillation counter. Cheng and Prusoff equations were used to convert the inhibition of compound 1 binding into the corresponding Ki value. Activity equal to A refers to a compound having Ki=0.001 to 0.003 μM while B and C denote compounds having Ki=0.003 to 0.05 μM and Ki≧0.050 μM respectively.

For assay [1], the system named is recombinant NL-Rluc virus. The assay is described as follows: Inhibition of HIV replication (NL-RLuc virus, Renilla luciferase). To be noted: Human immunodeficiency virus 1, read-out: antiviral actitively. Type of assay: cell-based.

A value given as a limit tells only on which side of the number the result lay.

For the compound `CC1(C)COCCn2c1nc(C(=O)NCc1ccc(F)cc1-n1ncnc1-c1ccccc1)c(O)c2=O` [Example 20, N-((4-fluoro-2-(5-phenyl-1H-1,2,4-triazol-1-yl)phenyl)methyl)-3-hydroxy-10,10-dimethyl-4-oxo-6,7,9,10-tetrahydro-4H-pyrimido[1,2-d][1,4]oxazepine-2-carboxamide], the Ki on HIV-Integrase is not below 0.05 µM. Also, the EC50 in assay [1] was more than 0.05 µM.

`COP(=O)(OC)c1cc(F)ccc1CNC(=O)c1nc2n(c(=O)c1O)CCOCC2(C)C` [Example 17, Dimethyl (5-fluoro-2-((((3-hydroxy-10,10-dimethyl-4-oxo-6,7,9,10-tetrahydro-4H-pyrimido[1,2-d][1,4]oxazepin-2-yl)carbonyl)amino)methyl)phenyl)-phosphonate]: the Ki at HIV-Integrase lay in the range of 0.003 to 0.05 µM. The EC50 in assay [1] lay within 0.001 to 0.01 µM.

Regarding `Cc1nc(-c2cc(F)ccc2CNC(=O)c2nc3n(c(=O)c2O)CCOCC32CCOCC2)n(C)n1` [Example 41, N-((2-(1,3-dimethyl-1H-1,2,4-triazol-5-yl)-4-fluorophenyl)methyl)-3′-hydroxy-4′-oxo-2,3,5,6,6′,7′-hexahydro-4′H-spiro[pyran-4,10′-pyrimido[1,2-d][1,4]oxazepine]-2′-carboxamide], at HIV-Integrase, the Ki was 0.003 to 0.05 µM. The EC50 in assay [1] fell in the range of 0.01 to 0.05 µM.

Turning to `CN1CCN(c2cc(F)ccc2CNC(=O)c2nc3n(c(=O)c2O)CCOCC32CCOCC2)C1=O` [Example 38, N-((4-fluoro-2-(3-methyl-2-oxo-1-imidazolidinyl)phenyl)methyl)-3′-hydroxy-4′-oxo-2,3,5,6,6′,7′-hexahydro-4′H-spiro[pyran-4,10′-pyrimido[1,2-d][1,4]oxazepine]-2′-carboxamide], at HIV-Integrase, the Ki lay in the range of 0.003 to 0.05 µM. Moreover, in assay [1], the EC50 is 0.001 to 0.01 µM.

For `CC1(C)COCCn2c1nc(C(=O)NCc1ccc(F)cc1)c(O)c2=O` [Example 1, N-((4-Fluorophenyl)methyl)-3-hydroxy-10,10-dimethyl-4-oxo-6,7,9,10-tetrahydro-4H-pyrimido[1,2-d][1,4]oxazepine-2-carboxamide], the Ki at HIV-Integrase is 0.003 to 0.05 µM. The EC50 in assay [1] lay in the range of 0.01 to 0.05 µM.

As to `O=C(NCc1ccc(F)cc1-n1ncnc1CF)c1nc2n(c(=O)c1O)CCOCC21CCOCC1` [Example 39, N-((4-fluoro-2-(5-(fluoromethyl)-1H-1,2,4-triazol-1-yl)phenyl)methyl)-3′-hydroxy-4′-oxo-2,3,5,6,6′,7′-hexahydro-4′H-spiro[pyran-4,10′-pyrimido[1,2-d][1,4]oxazepine]-2′-carboxamide], the Ki at HIV-Integrase lay within 0.003 to 0.05 µM. For the same compound, the EC50 in assay [1] lay in the range of 0.001 to 0.01 µM.

Turning to `Cc1ncnn1-c1cc(F)ccc1CNC(=O)c1nc2n(c(=O)c1O)CCOCC2(C)C` [Example 4, N-((4-Fluoro-2-(5-methyl-1H-1,2,4-triazol-1-yl)phenyl)methyl)-3-hydroxy-10,10-dimethyl-4-oxo-6,7,9,10-tetrahydro-4H-pyrimido[1,2-d][1,4]oxazepine-2-carboxamide], on HIV-Integrase, the Ki was 0.003 to 0.05 µM. Further, the EC50 in assay [1] is 0.001 to 0.01 µM.

For `CS(=O)(=O)c1cc(F)ccc1CNC(=O)c1nc2n(c(=O)c1O)CCOCC21CCC1` [Example 8, N-((4-fluoro-2-(methylsulfonyl)phenyl)methyl)-3′-hydroxy-4′-oxo-6′,7′-dihydro-4′H-spiro[cyclobutane-1,10′-pyrimido[1,2-d][1,4]oxazepine]-2′-carboxamide], on HIV-Integrase, the Ki lay in the range of 0.001 to 0.003 µM. In addition, the EC50 in assay [1] fell in the range of 0.001 to 0.01 µM.

Regarding `Cc1nn(-c2cc(F)ccc2CNC(=O)c2nc3n(c(=O)c2O)CCOCC32CCOCC2)c(=O)n1C` [Example 28, N-(2-(3,4-dimethyl-5-oxo-4,5-dihydro-1H-1,2,4-triazol-1-yl)-4-fluorobenzyl)-3′-hydroxy-4′-oxo-2,3,4′,5,6,6′,7′,9′-octahydrospiro[pyran-4,10′-pyrimido[1,2-d][1,4]oxazepine]-2′-carboxamide], the Ki at HIV-Integrase is 0.003 to 0.05 µM. For the same compound, the EC50 in assay [1] was 0.001 to 0.01 µM.

For the compound `Cc1cnnn1-c1cc(F)ccc1CNC(=O)c1nc2n(c(=O)c1O)CCOCC2(C)C` [Example 19, N-(4-fluoro-2-(5-methyl-1H-1,2,3-triazol-1-yl)benzyl)-3-hydroxy-10,10-dimethyl-4-oxo-6,7,9,10-tetrahydro-4H-pyrimido[1,2-d][1,4]oxazepine-2-carboxamide], the Ki on HIV-Integrase is 0.003 to 0.05 µM. In addition, the EC50 in assay [1] lay within 0.001 to 0.01 µM.

Turning to `O=C(NCc1ccc(F)cc1-n1cncn1)c1nc2n(c(=O)c1O)CCOCC21CCCC1` [Example 14, N-((4-fluoro-2-(1H-1,2,4-triazol-1-yl)phenyl)methyl)-3′-hydroxy-4′-oxo-6′,7′-dihydro-4′H-spiro[cyclopentane-1,10′-pyrimido[1,2-d][1,4]oxazepine]-2′-carboxamide], the Ki on HIV-Integrase was 0.001 to 0.003 µM. Besides, the EC50 in assay [1] was 0.001 to 0.01 µM.

For the compound `Cn1ncnc1-c1cc(F)ccc1CNC(=O)c1nc2n(c(=O)c1O)CCOCC21CCOCC1` [Example 40, N-((4-fluoro-2-(1-methyl-1H-1,2,4-triazol-5-yl)phenyl)methyl)-3′-hydroxy-4′-oxo-2,3,5,6,6′,7′-hexahydro-4′H-spiro[pyran-4,10′-pyrimido[1,2-d][1,4]oxazepine]-2′-carboxamide], the Ki at HIV-Integrase was in the range of 0.003 to 0.05 µM. For the same compound, the EC50 in assay [1] lay within 0.001 to 0.01 µM.

In the case of `Cc1nnn(-c2cc(F)ccc2CNC(=O)c2nc3n(c(=O)c2O)CCOCC3(C)C)c1C` [Example 18, N-(2-(4,5-Dimethyl-1H-1,2,3-triazol-1-yl)-4-fluorobenzyl)-3-hydroxy-10,10-dimethyl-4-oxo-6,7,9,10-tetrahydro-4H-pyrimido[1,2-d][1,4]oxazepine-2-carboxamide], on HIV-Integrase, the Ki was in the range of 0.003 to 0.05 µM. Besides, in assay [1], the EC50 was in the range of 0.001 to 0.01 µM.

Turning to `Cc1ncnn1-c1cc(F)ccc1CNC(=O)c1nc2n(c(=O)c1O)CCOCC21CCOCC1` [Example 36, N-((4-fluoro-2-(5-methyl-1H-1,2,4-triazol-1-yl)phenyl)methyl)-3′-hydroxy-4′-oxo-2,3,5,6,6′,7′-hexahydro-4′H-spiro[pyran-4,10′-pyrimido[1,2-d][1,4]oxazepine]-2′-carboxamide], at HIV-Integrase, the Ki lay within 0.003 to 0.05 µM. Besides, in assay [1], the EC50 is 0.001 to 0.01 µM.

For `Cc1cnnn1-c1cc(F)ccc1CNC(=O)c1nc2n(c(=O)c1O)CCOCC21CCOCC1` [Example 37, N-((4-fluoro-2-(5-methyl-1H-1,2,3-triazol-1-yl)phenyl)methyl)-3′-hydroxy-4′-oxo-2,3,5,6,6′,7′-hexahydro-4′H-spiro[pyran-4,10′-pyrimido[1,2-d][1,4]oxazepine]-2′-carboxamide], the Ki at HIV-Integrase fell in the range of 0.003 to 0.05 µM. The EC50 in assay [1] fell in the range of 0.01 to 0.05 µM.

For `Cn1cnn(-c2cc(F)ccc2CNC(=O)c2nc3n(c(=O)c2O)CCOCC32CCOCC2)c1=O` [Example 27, N-(4-Fluoro-2-(4-methyl-5-oxo-4,5-dihydro-1H-1,2,4-triazol-1-yl)benzyl)-3′-hydroxy-4′-oxo-2,3,4′,5,6,6′,7′,9′-octahydrospiro[pyran-4,10′-pyrimido[1,2-d][1,4]oxazepine]-2′-carboxamide], the Ki at HIV-Integrase is 0.003 to 0.05 µM. The EC50 in assay [1] is 0.001 to 0.01 µM.

For the compound `O=C(NCc1ccc(F)cc1)c1nc2n(c(=O)c1O)CCOCC21CCOCC1` [Example 32, N-((4-fluorophenyl)methyl)-3′-hydroxy-4′-oxo-2,3,5,6,6′,7′-hexahydro-4′H-spiro[pyran-4,10′-pyrimido[1,2-d][1,4]oxazepine]-2′-carboxamide], at HIV-Integrase, the Ki was 0.003 to 0.05 µM. Also, the EC50 in assay [1] fell in the range of 0.01 to 0.05 µM.

As to `CS(=O)(=O)c1cc(F)ccc1CNC(=O)c1nc2n(c(=O)c1O)CCOCC21CCCC1` [Example 13, N-((4-fluoro-2-(methylsulfonyl)phenyl)methyl)-3′-hydroxy-4′-oxo-6′,7′-dihydro-4′H-spiro[cyclopentane-1,10′-pyrimido[1,2-d][1,4]oxazepine]-2′-carboxamide], on HIV-Integrase, the Ki lay within 0.001 to 0.003 µM. In addition, in assay [1], the EC50 was 0.001 to 0.01 µM.

Regarding `CC1(C)COCCn2c1nc(C(=O)NCc1ccc(F)cc1S(C)(=O)=O)c(O)c2=O` [Example 3, N-((4-Fluoro-2-(methylsulfonyl)phenyl)methyl)-3-hydroxy-10,10-dimethyl-4-oxo-6,7,9,10-tetrahydro-4H-pyrimido[1,2-d][1,4]oxazepine-2-carboxamide], at HIV-Integrase, the Ki is 0.003 to 0.05 µM. For the same compound, the EC50 in assay [1] fell in the range of 0.001 to 0.01 µM.

Turning to `O=C(NCc1ccc(F)cc1)c1nc2n(c(=O)c1O)CCOCC21CCCC1` [Example 12, N-((4-fluorophenyl)methyl)-3′-hydroxy-4′-oxo-6′,7′-dihydro-4′H-spiro[cyclopentane-1,10′-pyrimido[1,2-d][1,4]oxazepine]-2′-carboxamide], on HIV-Integrase, the Ki was 0.001 to 0.003 µM. For the same compound, in assay [1], the EC50 was in the range of 0.001 to 0.01 µM.

These data come from patent publication US8039458B2, “HIV integrase inhibitors” (priority 2005, dated 2011).
